# Results reported in patent US20230284620A1, “MIXTURES OF PYRIDAZINES AS HERBICIDAL COMPOSITIONS” (SYNGENTA CROP PROTECTION AG, priority 2020, published 2023).
# Values joined by “and” are separate entries in the source; they are usually repeats but may differ in a detail not shown here. Equal entries are not always repeated.
# Columns and labels:
# Test in all cases: Post-emergence glasshouse herbicide test, visual phytotoxicity
# Type in all cases: in vivo
# Details in all cases: 13 days
# [1] = tested on: Stellaria media (STEME)
# Protocol: (§1) Seeds of Setaria faberi (SETFA), Echinochloa crus-galli (ECHCG), Digitaria sanguinalis (DIGSA), Lolium perenne (LOLPE), Alopecurus myosuroides (ALOMY), Chenopodium album (CHEAL), Ipomoea hederacea (IPOHE), Stellaria media (STEME), Abutilon threophrasti (ABUTH) and Amaranthus retroflexus (AMARE) were sown in standard sterilised soil in pots. After cultivation for 8 days under controlled conditions in a glasshouse (at 24/19° C., day/night; 16 hours light; no humidity control), the plants were sprayed at 500 l/Ha with an aqueous spray solution derived from the formulation of the technical active ingredients in a small amount of acetone and a solvent and emulsifier mixture referred to as IF50 (11.12% Emulsogen EL360 TM+44.44% N-methylpyrrolidone+44.44% Dowanol DPM glycol ether), to create a 50 g/l solution which was then diluted using 0.2% Genapol X080 (CAS Number: 9043-30-5) as diluent to give the desired final dose of test compound.
# (§2) Where active ingredients were applied as mixtures, aqueous spray solutions were prepared as above, containing both active ingredients.
# (§3) The test plants were then grown under controlled conditions in a glasshouse (at 24/18° C., day/night; 15 hours light; 50% humidity) and watered twice daily. After 13 days, the test was evaluated visually for percentage phytotoxicity to the plants (where 100=total damage to plant; 0=no damage to plant; and NC=not captured) when compared to control untreated plants. Two to four replicates were applied for each treatment in a randomised block test design.
# (§4) 22., E=X+Y−(X*Y/100), where • X=average percent phytotoxicity of herbicide A when applied at a certain rate • Y=average percent phytotoxicity using herbicide B when applied at a certain rate • E=the expected effect of the mixture of herbicides A and B as calculated from the Colby formula.
# [2] = tested on: Echinochloa crus-galli (ECHCG)
# Protocol: as §1, §2, §3, §4
# [3] = tested on: Alopecurus myosuroides (ALOMY)
# Protocol: as §1, §2, §3, §4
# [4] = tested on: Amaranthus retroflexus (AMARE)
# Protocol: as §1, §2, §3, §4
# [5] = tested on: Lolium perenne (LOLPE)
# Protocol: as §1, §2, §3, §4
# [6] = tested on: Digitaria sanguinalis (DIGSA)
# Protocol: as §1, §2, §3, §4
# [7] = tested on: Ipomoea hederacea (IPOHE)
# Protocol: as §1, §2, §3, §4
# [8] = tested on: Chenopodium album (CHEAL)
# Protocol: as §1, §2, §3, §4
# [9] = tested on: Setaria faberi (SETFA)
# Protocol: as §1, §2, §3, §4
# [10] = tested on: Abutilon threophrasti (ABUTH)
# Protocol: as §1, §2, §3, §4
compound,measurement,setting,value
CS(=O)(=O)c1ccc(C(=O)C2C(=O)CCCC2=O)c(Cl)c1OCCC1OCCO1 [B-II],percentage phytotoxicity STEME,[1]; 0.625 g/ha,0%
same,percentage phytotoxicity STEME,[1]; 1.25 g/ha,10%
same,percentage phytotoxicity STEME,[1]; 2.5 g/ha,28%
same,percentage phytotoxicity STEME,[1]; 5 g/ha,53%
same,percentage phytotoxicity STEME,[1]; 10 g/ha,70%
same,percentage phytotoxicity ECHCG,[2]; 0.625 g/ha,0%
same,percentage phytotoxicity ECHCG,[2]; 1.25 g/ha,5%
same,percentage phytotoxicity ECHCG,[2]; 2.5 g/ha,0%
same,percentage phytotoxicity ECHCG,[2]; 5 g/ha,8%
same,percentage phytotoxicity ECHCG,[2]; 10 g/ha,5%
same,percentage phytotoxicity ALOMY,[3]; 0.625 g/ha,0%
same,percentage phytotoxicity ALOMY,[3]; 1.25 g/ha,3%
same,percentage phytotoxicity ALOMY,[3]; 2.5 g/ha,0%
same,percentage phytotoxicity ALOMY,[3]; 5 g/ha,5%
same,percentage phytotoxicity ALOMY,[3]; 10 g/ha,0%
same,percentage phytotoxicity AMARE,[4]; 0.625 g/ha,0%
same,percentage phytotoxicity AMARE,[4]; 1.25 g/ha,13%
same,percentage phytotoxicity AMARE,[4]; 2.5 g/ha,25%
same,percentage phytotoxicity AMARE,[4]; 5 g/ha,53%
same,percentage phytotoxicity AMARE,[4]; 10 g/ha,58%
same,percentage phytotoxicity LOLPE,[5]; 0.625 g/ha,0%
same,percentage phytotoxicity LOLPE,[5]; 1.25 g/ha,5%
same,percentage phytotoxicity LOLPE,[5]; 2.5 g/ha,0%
same,percentage phytotoxicity LOLPE,[5]; 5 g/ha,5%
same,percentage phytotoxicity LOLPE,[5]; 10 g/ha,0%
same,percentage phytotoxicity DIGSA,[6]; 0.625 g/ha,0%
same,percentage phytotoxicity DIGSA,[6]; 1.25 g/ha,5%
same,percentage phytotoxicity DIGSA,[6]; 2.5 g/ha,0%
same,percentage phytotoxicity DIGSA,[6]; 5 g/ha,10%
same,percentage phytotoxicity DIGSA,[6]; 10 g/ha,3%
same,percentage phytotoxicity IPOHE,[7]; 0.625 g/ha,5%
same,percentage phytotoxicity IPOHE,[7]; 1.25 g/ha,15%
same,percentage phytotoxicity IPOHE,[7]; 2.5 g/ha,20%
same,percentage phytotoxicity IPOHE,[7]; 5 g/ha,45%
same,percentage phytotoxicity IPOHE,[7]; 10 g/ha,55%
same,percentage phytotoxicity CHEAL,[8]; 0.625 g/ha,5%
same,percentage phytotoxicity CHEAL,[8]; 1.25 g/ha,15%
same,percentage phytotoxicity CHEAL,[8]; 2.5 g/ha,30%
same,percentage phytotoxicity CHEAL,[8]; 5 g/ha,55%
same,percentage phytotoxicity CHEAL,[8]; 10 g/ha,65%
same,percentage phytotoxicity SETFA,[9]; 0.625 g/ha,0%
same,percentage phytotoxicity SETFA,[9]; 1.25 g/ha,3%
same,percentage phytotoxicity SETFA,[9]; 2.5 g/ha,0%
same,percentage phytotoxicity SETFA,[9]; 5 g/ha,5%
same,percentage phytotoxicity SETFA,[9]; 10 g/ha,0%
same,percentage phytotoxicity ABUTH,[10]; 0.625 g/ha,0%
same,percentage phytotoxicity ABUTH,[10]; 1.25 g/ha,40%
same,percentage phytotoxicity ABUTH,[10]; 2.5 g/ha,43%
same,percentage phytotoxicity ABUTH,[10]; 5 g/ha,58%
same,percentage phytotoxicity ABUTH,[10]; 10 g/ha,70%
CC1(C)CN(Cc2ccccc2NS(=O)(=O)C(F)(F)F)C1=O [B-IV],percentage phytotoxicity STEME,[1]; 31.25 g/ha,68%
same,percentage phytotoxicity STEME,[1]; 62.5 g/ha,78%
same,percentage phytotoxicity STEME,[1]; 125 g/ha,80%
same,percentage phytotoxicity STEME,[1]; 250 g/ha,80%
same,percentage phytotoxicity STEME,[1]; 500 g/ha,83%
same,percentage phytotoxicity ECHCG,[2]; 31.25 g/ha,0%
same,percentage phytotoxicity ECHCG,[2]; 62.5 g/ha,0%
same,percentage phytotoxicity ECHCG,[2]; 125 g/ha,45%
same,percentage phytotoxicity ECHCG,[2]; 250 g/ha,53%
same,percentage phytotoxicity ECHCG,[2]; 500 g/ha,63%
same,percentage phytotoxicity ALOMY,[3]; 31.25 g/ha,0%
same,percentage phytotoxicity ALOMY,[3]; 62.5 g/ha,0%
same,percentage phytotoxicity ALOMY,[3]; 125 g/ha,23%
same,percentage phytotoxicity ALOMY,[3]; 250 g/ha,50%
same,percentage phytotoxicity ALOMY,[3]; 500 g/ha,73%
same,percentage phytotoxicity AMARE,[4]; 31.25 g/ha,73%
same,percentage phytotoxicity AMARE,[4]; 62.5 g/ha,80%
same,percentage phytotoxicity AMARE,[4]; 125 g/ha,83%
same,percentage phytotoxicity AMARE,[4]; 250 g/ha,85%
same,percentage phytotoxicity AMARE,[4]; 500 g/ha,83%
same,percentage phytotoxicity LOLPE,[5]; 31.25 g/ha,0%
same,percentage phytotoxicity LOLPE,[5]; 62.5 g/ha,0%
same,percentage phytotoxicity LOLPE,[5]; 125 g/ha,33%
same,percentage phytotoxicity LOLPE,[5]; 250 g/ha,48%
same,percentage phytotoxicity LOLPE,[5]; 500 g/ha,80%
same,percentage phytotoxicity DIGSA,[6]; 31.25 g/ha,0%
same,percentage phytotoxicity DIGSA,[6]; 62.5 g/ha,0%
same,percentage phytotoxicity DIGSA,[6]; 125 g/ha,18%
same,percentage phytotoxicity DIGSA,[6]; 250 g/ha,38%
same,percentage phytotoxicity DIGSA,[6]; 500 g/ha,70%
same,percentage phytotoxicity IPOHE,[7]; 31.25 g/ha,75%
same,percentage phytotoxicity IPOHE,[7]; 62.5 g/ha,35%
same,percentage phytotoxicity IPOHE,[7]; 125 g/ha,88%
same,percentage phytotoxicity IPOHE,[7]; 250 g/ha,89%
same,percentage phytotoxicity IPOHE,[7]; 500 g/ha,93%
same,percentage phytotoxicity CHEAL,[8]; 31.25 g/ha,15%
same,percentage phytotoxicity CHEAL,[8]; 62.5 g/ha,30%
same,percentage phytotoxicity CHEAL,[8]; 125 g/ha,15%
same,percentage phytotoxicity CHEAL,[8]; 250 g/ha,20%
same,percentage phytotoxicity CHEAL,[8]; 500 g/ha,58%
same,percentage phytotoxicity SETFA,[9]; 31.25 g/ha,0%
same,percentage phytotoxicity SETFA,[9]; 62.5 g/ha,0%
same,percentage phytotoxicity SETFA,[9]; 125 g/ha,23% and 22%
same,percentage phytotoxicity SETFA,[9]; 250 g/ha,48%
same,percentage phytotoxicity SETFA,[9]; 500 g/ha,50%
same,percentage phytotoxicity ABUTH,[10]; 31.25 g/ha,15%
same,percentage phytotoxicity ABUTH,[10]; 62.5 g/ha,3%
same,percentage phytotoxicity ABUTH,[10]; 125 g/ha,13%
same,percentage phytotoxicity ABUTH,[10]; 250 g/ha,45%
same,percentage phytotoxicity ABUTH,[10]; 500 g/ha,60%
